Laboratory results from patent US20120035214A1, “RENIN INHIBITORS” (Merck Canada Inc., priority 2009, published 2012).

Experiments:
[1] = biological target: T1, Human recombinant renin (Homo sapiens, UniProt P00797); test: Inhibition of human recombinant renin (QFRET, buffer); format: biochemical; conditions: buffer: 50 mM MOPS pH 7.4, 100 mM NaCl, 0.002% Tween 20; 37° C., 3 hours
T1 construct: purchased Proteos
T1 sequence (P00797 67-406): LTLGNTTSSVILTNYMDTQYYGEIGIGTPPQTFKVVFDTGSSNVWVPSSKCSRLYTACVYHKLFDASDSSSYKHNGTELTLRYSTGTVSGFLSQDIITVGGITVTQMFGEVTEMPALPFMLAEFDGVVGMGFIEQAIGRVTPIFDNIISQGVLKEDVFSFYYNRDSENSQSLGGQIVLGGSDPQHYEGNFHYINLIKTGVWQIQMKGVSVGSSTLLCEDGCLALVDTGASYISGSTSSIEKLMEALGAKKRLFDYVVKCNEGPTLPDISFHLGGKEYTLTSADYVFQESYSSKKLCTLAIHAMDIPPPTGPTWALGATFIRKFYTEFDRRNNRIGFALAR
Protocol: Inhibition of Human Recombinant Renin
Human recombinant renin (Proteos) in 50 mM MOPS pH 7.4, 100 mM NaCl, 0.002% Tween 20 at a final concentration of […] is incubated with inhibitors from a 50 fold concentrated DMSO solution and 6 μM of an internally-quenched fluorescent peptide: DNP-[…]D,L-Amp (SEQ ID NO: 1); Paschalidou K. et al., Biochem J., 2004, 382, 1031). The reactions take place in a Costar 384 well black plate (#3573) at 37° C. for 3 hours. Fluorescence is measured at times 0 and 3 hours with a SpectraMax Gemini EM reader set at an excitation wavelength of 328 nm and at an emission wavelength of 388 nm. Background fluorescence at t=0 is subtracted from the measurement at t=3 hours. Inhibitory activity of the compounds is expressed as IC50.

[2] = biological target: T2, recombinant renin in human plasma (Homo sapiens, UniProt P00797); test: Inhibition of renin in human plasma (QFRET, plasma); format: biochemical; conditions: human EDTA plasma with 1 nM recombinant renin added; 37° C., 1 hour
T2 construct: purchased Proteos
T2 sequence (P00797 67-406): T1 sequence (P00797 67-406)
Protocol: Inhibition of Renin in Human Plasma
Human EDTA-collected plasma is rapidly thawed in warm water and centrifuged at 2900 g for 15 minutes at 4° C. The supernatant is collected and recombinant renin (Proteos) is added at a final concentration of 1 nM. The plasma is transferred to a Costar black 384 well plate (#3573). Renin inhibitors are added from a 17.5 fold concentrated DMSO solution and pre-incubated at 37° C. for 10 minutes. The internally-quench fluorescent peptide QXL520™-[…](5-FAM) (Anaspec), SEQ ID NO: 2, is diluted in 3M Tris pH 7.2, 200 mM EDTA and added to the plasma. The final concentrations are: 6 μM substrate, 342 mM Tris, 23 mM EDTA. The plate is incubated at 37° C. for 1 hour. The plate is read in a SpectraMax Gemini EM reader set at an excitation wavelength of 490 nm and an emission wavelength of 520 nm at times 0 and 1 hour. Background fluorescence at t=0 is subtracted from the measurement at t=1 hour. Inhibitory activity of the compounds is expressed as IC50.

SMILES | IC50 [1] | IC50 [2]
COCCCc1ccccc1-c1ccc([C@H]2CNCC[C@@H]2c2cccnc2)c(Cl)c1 (racemic) [Structure 11] | 2.7 nM | 66 nM
Cc1cc(-c2ccccc2CCN)ccc1[C@H]1CNCC[C@@H]1c1cc(F)cc(F)c1 (racemic) [Structure 27] | 81 nM | 1040 nM
Cc1cc(-c2ccccc2CCNC(=O)C(F)(F)F)ccc1[C@H]1CNCC[C@@H]1c1cc(F)cc(F)c1 (racemic) [Structure 20] | 0.57 nM | 25 nM
CC(=O)NCCc1ccccc1-c1noc([C@H]2CNCC[C@]2(O)c2ccc(F)c(F)c2)c1Br [Structure 76] | 0.36 nM | 1.6 nM
O[C@]1(c2ccc(F)c(F)c2)CCNC[C@@H]1c1cn(-c2ccc(F)cc2Br)nn1 [Structure 91] | 2900 nM | 9470 nM
COC(=O)NCCc1ccccc1-c1onc([C@H]2CNCC[C@]2(O)c2ccc(F)c(F)c2)c1C(C)=O [Structure 84] | 10 nM | 93 nM
COC[C@H](C)COCc1ccc([C@@]2(O)CCNC[C@@H]2c2ccc(-c3ccccc3CCNC(C)=O)cc2C)nc1 [Structure 130] | 0.075 nM | 3.8 nM
Cc1ccccc1OCc1ccccc1-c1ccc([C@H]2CNCC[C@@H]2c2cc(F)cc(F)c2)c(C)c1 (racemic) [Structure 34] | 7.5 nM | 4980 nM
COCCC[C@H](CNC(C)=O)c1ccccc1-c1onc([C@H]2CNCC[C@]2(O)c2ccc(F)c(F)c2)c1Br [Structure 98] | 0.58 nM | 2.2 nM
O[C@]1(c2ccc(F)c(F)c2)CCNC[C@@H]1c1onc(-c2cccc3ccccc23)c1Br [Structure 75] | 0.064 nM | 4.7 nM
CCC(=O)NCCc1ccccc1-c1ccc([C@H]2CNCC[C@@H]2c2ccn(C)c(=O)c2)c(Cl)c1 (racemic) [Structure 61] | 6.2 nM | 7.9 nM
COCCCc1ccccc1-c1cc(C)c([C@H]2CNCC[C@@H]2c2ccc(Cl)c(F)c2)cn1 (racemic) [Structure 50] | 1.5 nM | 230 nM
COC[C@H](C)COCc1ccc([C@@]2(O)CCNC[C@@H]2c2ccc(-c3ccccc3CCNC(=O)CO)cc2C)cc1 [Structure 128] | 0.07 nM | 0.57 nM
O[C@]1(c2ccc(F)c(F)c2)CCNC[C@@H]1c1cc(-c2ccc(F)cc2Cl)no1 [Structure 69] | 2500 nM | 

The next lines start with the values.

IC50 [1] | IC50 [2] | SMILES
710 nM | 1350 nM | CC(=O)NCCc1ccccc1-c1ccc([C@@H]2CNCC[C@H]2c2ccn(C)c(=O)c2)c(Cl)c1 [Structure 60]
2.1 nM | 3.4 nM | CC(=O)NCCc1ccccc1-c1ccc([C@H]2CNCC[C@@H]2c2ccn(C)c(=O)c2)c(Cl)c1 [Structure 59]
0.26 nM | 3.5 nM | O=C(CO)NCCc1ccccc1-c1ccc([C@H]2CNCC[C@@H]2c2ccc(F)c(F)c2)c(Cl)c1 (racemic) [Structure 43]
530 nM | 11600 nM | CC(=O)NCCc1ccccc1-c1ccc([C@@H]2CNCC[C@H]2c2cc(F)cc(F)c2)c(C)c1 [Structure 17]
3.6 nM | 7.1 nM | CC(=O)NCCc1ccccc1-c1ccc([C@H]2CNCC[C@@H]2c2ccn(C)c(=O)c2)c(Cl)c1 (racemic) [Structure 58]
1.5 nM | 30 nM | Cc1cc(-c2ccccc2CCNC(=O)CO)ccc1[C@H]1CNCC[C@@H]1c1cc(F)cc(F)c1 (racemic) [Structure 26]
3.7 nM | 45 nM | CC(=O)NCCc1ccccc1-c1ccc([C@H]2CNCC[C@@H]2c2ccc(F)c(F)c2)cc1 (racemic) [Structure 44]
0.78 nM | 280 nM | CC(=O)NCCc1ccc(C(F)(F)F)cc1-c1ccc([C@H]2CNCC[C@@H]2c2ccc(F)c(F)c2)c(Cl)c1 (racemic) [Structure 46]
1710 nM | 9040 nM | CC(=O)NCc1ccccc1-c1ccc([C@H]2CNCC[C@@H]2c2ccc(F)c(F)c2)cc1 (racemic) [Structure 49]
